Source: patent publication US7375132B2, “Compounds and methods for inhibiting cellular responses to hypoxia” (University of Mississippi, priority 2004, dated 2008)

Legend:
[1] = test system: HIF-1α protein; test: Western blot of nuclear HIF-1α protein induced by hypoxia; assay type: cell-based, human; details: T47D cells; hypoxia about 4 hours; nuclear extract Western blot
Description: Since the availability of the oxygen-regulated HIF-1α protein determines the biological activity of HIF-1 and hypoxia induces HIF-1α protein, the effect of compounds of the present invention on the induction of HIF-1α protein are examined in T47D cells. Briefly, exponentially grown T47D cells are exposed to a compound of Formula (I) for about 30 minutes. The incubation then continues for about 4 hours under hypoxic conditions. Nuclear extracts are prepared from control and treated cells. The HIF-1αand HIF-1β proteins in the nuclear extract samples are detected by Western blot, using HIF-1αand HIF-1β specific antibodies (Novus Biologicals). […] Significant inhibition of HIF-1α protein is observed at about 100 nM and complete inhibition is observed at about 1 μM. It is reasonable to conclude that the selectivity of the compounds of the present invention towards hypoxia-activated HIF-1 is caused by selective blockade of the hypoxic induction of HIF-1α protein.

[2] = test system: HIF-1; test: Cell-based HIF-1 luciferase reporter assay, HIF-1 activation by iron chelator 1,10-phenanthroline (chemical hypoxia); parameters: species or system human; details: T47D cells; 1,10-phenanthroline at 10 μM; compound about 3 μM (FIG. 3)
Description: For these studies, exponentially grown T47D cells are transiently transfected with the pTK-HRE3-luc and pGL3-control (Promega) reporters and plated into 96-well plates. The pGL3-control reporter contains a modified reporter (cloned from Photinus pyralis) under the control of a SV40 early promoter and provides low-level, constitutive expression in mammalian cells as internal control.
About 24 hours after plating, a compound of Formula (I) is added to the transfected T47D cells. Following incubation at about 37° C. for about 30 minutes, the cells are exposed to hypoxic conditions (1% O2/5% CO2/94% N2) or chemical hypoxia (iron chelator 1,10-phenanthroline at 10 μM) for 16 hr. At the end of incubation, the cells are harvested and both luciferase activities determined using a Luciferase Assay System (Promega). Luciferase activity from the pTK-HRE3-luc reporter was compared to luciferase activity from the pGL3-control reporter.

[3] = test system: secreted VEGF protein; test: Secreted VEGF protein ELISA after 1,10-phenanthroline (chemical hypoxia); assay type: cell-based, human; details: T47D cells pretreated with 1,10-phenanthroline (chemical hypoxia)
Description: (§1) Since secreted VEGF protein is the bioactive form, compounds that can reduce the level of secreted VEGF protein represent potential tumor angiogenesis inhibitors. Thus, compounds that can inhibit both hypoxic activation of HIF-1 and hypoxic induction of secreted VEGF protein represent “true” leads that target tumor hypoxia. The effects of compounds of the present invention on hypoxic induction of secreted VEGF protein are examined in T47D cells. Exponentially grown T47D cells were plated at the density of about 30,000 cells/well into 96-well plates. Compound treatment and hypoxic exposure were the same as described. Following incubation, secreted VEGF protein concentrations in the conditioned media are determined by ELISA (R & D Systems) and the data normalized by the number of viable cells. […] Therefore, in addition to its effect on HIF-1, compounds of the present invention have a potential therapeutic application as an agent to inhibit tumor angiogenesis.

[4] = test system: T47D cells; test: T47D cell survival under hypoxic conditions (FIG. 8); assay type: cell-based, human
[5] = test system: mitochondrial electron transport pathway; test: Mitochondrial oxygen consumption (FIG. 9); assay type: biochemical; details: in the presence of glutamate/malate, ADP; increasing amounts of compound
Description: FIG. 9 is a graph showing that a compound of formula 1 inhibits the mitochondrial electron transport pathway. Mitochondrial oxygen consumption was measured, in this example, in the presence of glutamate/malate, ADP and increasing amounts of a compound of formula 1.

[6] = test system: HIF-1; test: Cell-based HIF-1 luciferase reporter assay (pTK-HRE3-luc), HIF-1 activation by hypoxia; details: Homo sapiens; T47D cells; 1% O2/5% CO2/94% N2, 16 hr; read-out: IC50, inhibition of hypoxia-induced HIF-1 activity
Source text: To identify functional antagonists of HIF-1, the present inventors have established a cell-based reporter assay for inhibitors of HIF-1 in hypoxia responsive human breast carcinoma T47D cells. Breast cancer was chosen as the target for this drug discovery effort, due to the high incidence of this disease and the urgent need to identify chemotherapeutic agents that target tumor hypoxia, the comprehensive knowledge base of breast cancer etiology, and the availability of well-studied human breast carcinoma cell lines as in vitro models. In addition, HIF-1α overexpression is associated with advanced stages of breast cancer and poor prognosis. The activity of HIF-1 is monitored using a luciferase reporter under the control of HRE from the erythropoietin gene (pTK-HRE3-luc). Natural product-rich extracts (dissolved in DMSO) are evaluated for activities that inhibit HIF-1 activation by hypoxia (about: 1% O2/5% CO2/94% N2).
For these studies, exponentially grown T47D cells are transiently transfected with the pTK-HRE3-luc and pGL3-control (Promega) reporters and plated into 96-well plates. […]
About 24 hours after plating, a compound of Formula (I) is added to the transfected T47D cells. […] At the end of incubation, the cells are harvested and both luciferase activities determined using a Luciferase Assay System (Promega). […]

[7] = test system: T47D cells; test: Cell viability by Neutral Red assay under hypoxic conditions; assay type: cell-based, human; details: similar hypoxic conditions
Source text: The data presented in FIGS. 2 and 3 are averages from one representative experiment performed in quadruplicate and the bars represent standard errors. Accordingly, a compound of Formula (I) is shown to have a selective effect on physiological hypoxia-induced HIF-1 activation, relative to “chemical hypoxia”-induced HIF-1. To rule out false positives associated with cytotoxicity, the effects of Formula (I) on cell viability are examined.

[8] = test system: secreted VEGF protein; test: Secreted VEGF protein ELISA after hypoxic treatment; assay type: cell-based, human; details: concentrations of 1 μM and above; hypoxic treatment of T47D cells
Description: as §1

IC50 [6]: ~400 nM
SMILES: CC1=CC(O)C(C(C)CCC2C(C)C3(C)CCC2(C)O3)CC1 (stereo not drawn) [Formula (I), LAURENDITERPENOL]
concentration at which complete inhibition of HIF-1α protein is observed [1]: about 1 μM | concentration at which significant inhibition of HIF-1α protein is observed [1]: about 100 nM | effect on iron chelator-induced HIF-1 [2]: no statistically significant effect | effect on secreted VEGF protein levels [3]: do not affect | effect on T47D cell survival [4]: significantly reduced | effect on mitochondrial electron transport pathway (oxygen consumption) [5]: inhibits | effect on T47D cell viability [7]: marginal decrease | decrease in level of secreted VEGF protein [8]: about 60%
